Data from paper PMC3216989, “Bluetongue Virus VP1 Polymerase Activity In Vitro: Template Dependency, Dinucleotide Priming and Cap Dependency” (PLoS ONE, 2011).

Target: T1, BTV VP1 (his-tagged VP1) (Bluetongue virus (serotype 10 / American isolate), UniProt P13840)
T1 construct: gene Segment-1; tag cleavage not mentioned
Assay: in vitro polymerase assay, [α-32P]CTP incorporation into dsRNA, native PAGE
Type: biochemical
Conditions: 20 pmol in 50 µl, uncapped T7 S9 ssRNA template, Mg2+, Mn2+, pH 7.4, 37 °C, 5 h

T1 sequence (P13840 whole entry): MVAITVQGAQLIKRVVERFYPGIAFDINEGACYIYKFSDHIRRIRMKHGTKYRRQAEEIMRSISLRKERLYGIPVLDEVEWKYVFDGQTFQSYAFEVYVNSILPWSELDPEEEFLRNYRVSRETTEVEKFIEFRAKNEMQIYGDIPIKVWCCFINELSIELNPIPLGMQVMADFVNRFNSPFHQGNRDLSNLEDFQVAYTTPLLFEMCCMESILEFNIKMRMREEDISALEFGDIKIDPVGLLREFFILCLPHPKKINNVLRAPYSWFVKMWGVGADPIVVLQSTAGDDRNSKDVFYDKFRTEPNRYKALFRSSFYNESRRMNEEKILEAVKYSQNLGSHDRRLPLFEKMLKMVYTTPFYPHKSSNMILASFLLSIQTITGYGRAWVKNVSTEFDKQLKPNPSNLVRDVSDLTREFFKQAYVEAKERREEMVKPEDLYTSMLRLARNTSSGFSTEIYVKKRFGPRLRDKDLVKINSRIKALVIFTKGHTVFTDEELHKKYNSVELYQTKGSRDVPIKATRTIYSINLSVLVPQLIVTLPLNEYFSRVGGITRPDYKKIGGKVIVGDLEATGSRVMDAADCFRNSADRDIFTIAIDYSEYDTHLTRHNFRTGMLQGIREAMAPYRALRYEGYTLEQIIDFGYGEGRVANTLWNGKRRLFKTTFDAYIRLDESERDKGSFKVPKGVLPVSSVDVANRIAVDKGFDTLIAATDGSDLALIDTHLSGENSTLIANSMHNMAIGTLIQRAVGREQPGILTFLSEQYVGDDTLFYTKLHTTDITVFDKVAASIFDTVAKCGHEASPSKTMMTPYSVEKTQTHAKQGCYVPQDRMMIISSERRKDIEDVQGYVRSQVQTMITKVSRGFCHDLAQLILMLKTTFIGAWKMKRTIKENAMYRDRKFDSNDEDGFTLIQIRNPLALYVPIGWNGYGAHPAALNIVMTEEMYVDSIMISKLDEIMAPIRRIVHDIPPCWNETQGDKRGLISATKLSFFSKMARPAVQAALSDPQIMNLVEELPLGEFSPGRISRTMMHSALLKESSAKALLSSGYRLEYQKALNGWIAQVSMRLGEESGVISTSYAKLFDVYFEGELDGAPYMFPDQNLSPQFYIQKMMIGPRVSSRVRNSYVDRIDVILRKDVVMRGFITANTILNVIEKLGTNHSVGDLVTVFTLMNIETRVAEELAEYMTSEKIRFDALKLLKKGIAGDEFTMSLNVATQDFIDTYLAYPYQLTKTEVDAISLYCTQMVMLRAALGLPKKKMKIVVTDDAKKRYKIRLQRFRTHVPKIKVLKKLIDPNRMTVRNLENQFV

Question: With `C[n+]1cn([C@@H]2O[C@H](COP(=O)(O)OP(=O)(O)OP(=O)(O)OC[C@H]3O[C@@H](n4cnc5c(=O)[nH]c(N)nc54)[C@H](O)[C@@H]3O)[C@@H](O)[C@H]2O)c2nc(N)[nH]c(=O)c21` [m7GpppG] as the molecule, how does the fold of control (activator, allosteric proposed) read?
Answer: dsRNA synthesis from both capped and uncapped T7 S9 ssRNA was enhanced

Question: With `Nc1nc2c(ncn2[C@@H]2O[C@H](COP(=O)(O)O[C@H]3[C@@H](O)[C@H](n4cnc5c(N)ncnc54)O[C@@H]3CO)[C@@H](O)[C@H]2O)c(=O)[nH]1` [ApG] as the molecule, how does the fold of control (priming dinucleotide) read?
Answer: GpG and ApG, which complement only the last nucleotide

Question: `Nc1nc2c(ncn2[C@@H]2O[C@H](COP(=O)(O)OP(=O)(O)OP(=O)(O)OC[C@H]3O[C@@H](n4cnc5c(=O)[nH]c(N)nc54)[C@H](O)[C@@H]3O)[C@@H](O)[C@H]2O)c(=O)[nH]1` [GpppG] was tested. Which fold of control (activator, allosteric proposed) did it give?
Answer: enhanced by the addition of all cap analogues, with GpppG showing the greatest enhancement

Question: For `CO[C@H]1[C@@H](O)[C@H](n2c[n+](C)c3c(=O)[nH]c(N)nc32)O[C@@H]1COP(=O)(O)OP(=O)(O)OP(=O)(O)OC[C@H]1O[C@@H](n2cnc3c(=O)[nH]c(N)nc32)[C@H](O)[C@@H]1O` [ARCA, 3′-O-methyl-m7GpppG], which fold of control (activator, allosteric proposed) is on record?
Answer: dsRNA synthesis from both capped and uncapped T7 S9 ssRNA was enhanced

Question: Which fold of control (priming dinucleotide, additional allosteric effect proposed) does the source give for `Nc1nc2c(ncn2[C@@H]2O[C@H](COP(=O)(O)O[C@H]3[C@@H](O)[C@H](n4cnc5c(=O)[nH]c(N)nc54)O[C@@H]3CO)[C@@H](O)[C@H]2O)c(=O)[nH]1` [GpG] here?
Answer: GpG and ApG, which complement only the last nucleotide

Question: For `Nc1nc2c(ncn2[C@@H]2O[C@H](COP(=O)(O)OP(=O)(O)OP(=O)(O)OC[C@H]3O[C@@H](n4cnc5c(N)ncnc54)[C@H](O)[C@@H]3O)[C@@H](O)[C@H]2O)c(=O)[nH]1` [GpppA], which fold of control (activator, allosteric proposed) is on record?
Answer: dsRNA synthesis from both capped and uncapped T7 S9 ssRNA was enhanced
